Results on 15 compounds are retold here after patent publication US9751854B2 (Millennium Pharmaceuticals, Inc., priority 2014, dated 2017).

The term IC50 denotes the concentration that inhibits the measured activity by half. Low readings indicate inhibition by little substance, high ones a need for much substance.

Some results are limits rather than exact numbers.

human VPS34, sequence (Q8NEB9 whole entry): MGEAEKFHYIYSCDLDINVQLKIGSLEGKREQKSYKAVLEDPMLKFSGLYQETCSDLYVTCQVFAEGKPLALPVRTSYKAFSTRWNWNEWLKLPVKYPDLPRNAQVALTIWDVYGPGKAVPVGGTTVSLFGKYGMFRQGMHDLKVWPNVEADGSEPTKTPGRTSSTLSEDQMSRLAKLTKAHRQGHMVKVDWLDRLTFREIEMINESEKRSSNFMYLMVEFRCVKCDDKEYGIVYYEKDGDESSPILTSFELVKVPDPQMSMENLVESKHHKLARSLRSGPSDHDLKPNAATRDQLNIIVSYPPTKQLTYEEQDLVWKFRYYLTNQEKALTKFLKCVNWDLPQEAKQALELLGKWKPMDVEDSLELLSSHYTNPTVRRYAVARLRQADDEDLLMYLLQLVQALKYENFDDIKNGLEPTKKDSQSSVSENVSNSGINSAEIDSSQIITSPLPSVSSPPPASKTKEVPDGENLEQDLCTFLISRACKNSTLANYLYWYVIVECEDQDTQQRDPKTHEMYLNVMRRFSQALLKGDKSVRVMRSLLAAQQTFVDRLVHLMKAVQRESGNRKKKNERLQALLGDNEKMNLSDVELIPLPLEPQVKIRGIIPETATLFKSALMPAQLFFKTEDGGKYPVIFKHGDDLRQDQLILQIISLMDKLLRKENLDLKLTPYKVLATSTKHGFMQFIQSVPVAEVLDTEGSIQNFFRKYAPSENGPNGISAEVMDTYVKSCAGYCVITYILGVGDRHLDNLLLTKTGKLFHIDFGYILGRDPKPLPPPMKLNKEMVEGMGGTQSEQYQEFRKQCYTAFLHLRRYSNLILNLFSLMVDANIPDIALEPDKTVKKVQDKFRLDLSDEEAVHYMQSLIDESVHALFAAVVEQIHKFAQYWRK

This experiment has as its target human VPS34 (Homo sapiens (Human), UniProt Q8NEB9). Briefly: Human VPS34 enzyme assay (Adapta TR-FRET ADP detection). It is filed as biochemical. The conditions noted are these: IC50 range class. (TR-FRET usually uses a lanthanide donor and a delayed reading to cut background.)
On to `CC(=O)Nc1cc(-c2cncc(S(=O)(=O)NC3CCC3)c2)ccn1` [Compound I-396, N-[5-(cyclobutylsulfamoyl)-3,4′-bipyridin-2′-yl]acetamide], for which the IC50 lay within 10 to 50 nM.

With `CC(=O)Nc1cc(-c2cncc(N(C)C(=O)c3ccc(F)cc3F)c2)ccn1` [Compound I-397, N-(2′-acetamido-3,4′-bipyridin-5-yl)-2,4-difluoro-N-methylbenzamide], the half-inhibitory concentration (IC50) lay within 50 to 100 nM.

`CC(=O)Nc1cc(-c2cnc(C)c(N(C)C(=O)c3ccc(F)cc3F)c2)ccn1` [Compound I-398, N-(2′-acetamido-6-methyl-3,4′-bipyridin-5-yl)-2,4-difluoro-N-methylbenzamide]: the 50% inhibitory concentration (IC50) was over 100 nM.

Turning to `CC(=O)Nc1cc(-c2cnc(Cl)c(NS(=O)(=O)c3ccc(Cl)cc3F)c2C)ccn1` [Compound I-399, N-(6-chloro-5-{[(4-chloro-2-fluorophenyl)sulfonyl]amino}-4-methyl-3,4′-bipyridin-2′-yl)acetamide], the IC50 was 10 to 50 nM.

`CC(=O)Nc1cc(-c2cnc(Cl)c(NS(=O)(=O)c3cc(Cl)ccc3Cl)c2C)ccn1` [Compound I-401, N-(6-chloro-5-{[(2,5-dichlorophenyl)sulfonyl]amino}-4-methyl-3,4′-bipyridin-2′-yl)acetamide] yielded an IC50 of under 10 nM.

In turn, `Cc1nccc(Nc2cc(-c3cnc(Cl)c(C(=O)O)c3C)ccn2)n1` [Compound I-402, 6-chloro-4-methyl-2′-[(2-methylpyrimidin-4-yl)amino]-3,4′-bipyridine-5-carboxylic acid] yielded an IC50 of 10 to 50 nM.

Turning to `CC(=O)Nc1cc(-c2cc(NS(=O)(=O)c3ccc(F)cc3F)c3ccnn3c2)ccn1` [Compound I-404, N-[4-(4-{[(2,4-difluorophenyl)sulfonyl]amino}pyrazolo[1,5-a]pyridin-6-yl)pyridin-2-yl]acetamide], the IC50 lay within 10 to 50 nM.

In the case of `CC(=O)Nc1cc(-c2cncc(N3CCOc4cc(F)ccc4S3(=O)=O)c2)ccn1` [Compound I-405], the IC50 fell in the range of 10 to 50 nM.

Turning to `Cc1nccc(Nc2cc(-c3cnc4c(c3)C(=O)NCC4)ccn2)n1` [Compound I-406, 3-[2-[(2-methylpyrimidin-4-yl)amino]-4-pyridyl]-7,8-dihydro-6H-1,6-naphthyridin-5-one], the IC50 is over 100 nM.

The compound `Cc1nccc(Nc2cc(-c3cc(NC(=O)N4CC(F)(F)C4)c4ccnn4c3)ccn2)n1` [Compound I-407, 3,3-difluoro-N-(6-{2-[(2-methylpyrimidin-4-yl)amino]pyridin-4-yl}pyrazolo[1,5-a]pyridin-4-yl)azetidine-1-carboxamide] gave an IC50 of 10 to 50 nM.

In the case of `Cc1nccc(Nc2cc(-c3cncc(C(=O)N4CC(F)(F)C4)c3)ccn2)n1` [Compound I-408, (3,3-difluoroazetidin-1-yl){2′-[(2-methylpyrimidin-4-yl)amino]-3,4′-bipyridin-5-yl}methanone], the 50% inhibitory concentration (IC50) lay within 10 to 50 nM.

`CC(=O)Nc1cc(-c2cnc(N)c(C(=O)NC(=N)N)c2)ccn1` [Compound I-409, 2′-acetamido-6-amino-N-carbamimidoyl-3,4′-bipyridine-5-carboxamide] displayed an IC50 of over 100 nM.

The compound `CC(=O)Nc1cc(-c2cnc(Cl)c(S(=O)(=O)NC(C)(C)C)c2C)ccn1` [Compound I-410, N-[5-(tert-butylsulfamoyl)-6-chloro-4-methyl-3,4′-bipyridin-2′-yl]acetamide] came in with an IC50 of 10 to 50 nM.

In turn, `CC(=O)Nc1cc(-c2cnc(C#N)c(NS(=O)(=O)c3ccc(F)cc3F)c2)ccn1` [Compound I-411, N-(6-cyano-5-{[(2,4-difluorophenyl)sulfonyl]amino}-3,4′-bipyridin-2′-yl)acetamide] gave an IC50 of under 10 nM.

With `CC(=O)Nc1cc(-c2cnc(C)c(NS(=O)(=O)CC(F)F)c2)ccn1` [Compound I-412, N-(5-{[(2,2-difluoroethyl)sulfonyl]amino}-6-methyl-3,4′-bipyridin-2′-yl)acetamide], the IC50 lay within 10 to 50 nM.
